Laboratory results taken from patent US20220073525A1, “COMPOSITIONS FOR INHIBITING UBIQUITIN SPECIFIC PROTEASE 1” (FORMA Therapeutics, Inc., priority 2019, published 2022).
Like-named read-outs stand apart in the source and are kept apart here.

Target: USP1 (Homo sapiens, UniProt O94782)
Assay: Biochemical Assay for USP1 Inhibition (Ub-Rho 110 fluorescence)
Conditions: 30 min preincubation, Enzyme 0.025 nM, Substrate Ub-Rho 110 25 nM
Description: The assay was performed in a final volume of 6 μL in assay buffer containing 20 mM Tris-HCl pH 8.0, (1 M Tris-HCl, pH 8.0 solution; Corning 46-031-CM), 1 mM GSH (L-glutathione reduced, Sigma-Aldrich, G4251-100G), 0.03% BGG (0.22 μM filtered, Sigma, G7516-25G), and 0.01% Triton X-100 (Sigma, T9284-10L). Nanoliter quantities of 10-point, 3-fold serial dilution in DMSO were pre-dispensed into 1536 assay plates (Corning, #3724BC) for a final test concentration of 25 μM to 1.3 nM, top to lowest dose, respectively. Concentration and incubation times were optimized for the maximal signal-to-background while maintaining initial velocity conditions at a fixed substrate concentration (<<Km). 3 μL of 2× Enzyme was added to assay plates (pre-stamped with compound), preincubated for 30 min, and then treated with 3 μL of 2× Substrate (Ub-Rho 110, UbiQ-126). Final concentrations of Enzyme and Substrate are 0.025 nM and 25 nM, respectively. Plates were read using a kinetic protocol continuously for 11 min on the Envision (Perkin Elmer) or PheraSTAR (BMG), excitation at 485 nm and emission at 535 nm or excitation at 520 nm and emission at 590 nm. For all assay formats, data were reported as percent inhibition compared with control wells based on the following equation: % inh=100*([…]), where FLU=measured Fluorescence, AveLow=average Fluorescence of no enzyme control (n=32), and AveHigh=average Fluorescence of DMSO control (n=32). IC50 values were determined by curve fitting of the standard 4 parameter logistic fitting algorithm included in the Activity Base software package: TDBS XE Designer Model205. Data is fitted using the Levenburg Marquardt algorithm.
In Table 5, absolute stereochemistry has not been determined for some Compounds. Accordingly, assignment ofany Compounds as the “R” or “S” stereoisomer is arbitrary, unless otherwise noted. In some cases, Compounds are labeled with “1st eluting isomer”, “2nd eluting isomer”, etc. based on the purification method used to separate the stereoisomers.

[1] = Table 6, additional compounds, read-out: IC50

USP1, sequence (O94782 whole entry): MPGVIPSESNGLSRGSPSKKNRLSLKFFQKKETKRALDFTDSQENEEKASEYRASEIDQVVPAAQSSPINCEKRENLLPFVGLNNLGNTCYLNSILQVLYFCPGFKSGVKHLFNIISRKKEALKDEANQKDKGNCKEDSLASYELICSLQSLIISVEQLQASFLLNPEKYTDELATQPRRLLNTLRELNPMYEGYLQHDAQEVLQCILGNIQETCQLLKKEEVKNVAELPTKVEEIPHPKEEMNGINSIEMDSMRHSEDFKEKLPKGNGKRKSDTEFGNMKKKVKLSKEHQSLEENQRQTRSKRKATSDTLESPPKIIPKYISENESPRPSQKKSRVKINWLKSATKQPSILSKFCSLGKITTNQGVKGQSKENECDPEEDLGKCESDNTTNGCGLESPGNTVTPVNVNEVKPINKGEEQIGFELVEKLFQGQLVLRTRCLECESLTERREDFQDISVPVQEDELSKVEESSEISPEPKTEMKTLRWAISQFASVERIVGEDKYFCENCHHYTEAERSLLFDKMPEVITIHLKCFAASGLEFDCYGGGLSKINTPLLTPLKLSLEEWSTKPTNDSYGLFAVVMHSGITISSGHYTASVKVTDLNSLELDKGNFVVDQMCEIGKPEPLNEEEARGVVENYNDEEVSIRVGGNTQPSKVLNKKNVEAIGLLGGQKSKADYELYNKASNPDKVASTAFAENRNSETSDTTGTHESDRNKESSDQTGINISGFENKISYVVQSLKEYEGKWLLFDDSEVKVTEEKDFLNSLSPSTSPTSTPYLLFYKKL
USP1, sequence (Q8TAF3 whole entry partner): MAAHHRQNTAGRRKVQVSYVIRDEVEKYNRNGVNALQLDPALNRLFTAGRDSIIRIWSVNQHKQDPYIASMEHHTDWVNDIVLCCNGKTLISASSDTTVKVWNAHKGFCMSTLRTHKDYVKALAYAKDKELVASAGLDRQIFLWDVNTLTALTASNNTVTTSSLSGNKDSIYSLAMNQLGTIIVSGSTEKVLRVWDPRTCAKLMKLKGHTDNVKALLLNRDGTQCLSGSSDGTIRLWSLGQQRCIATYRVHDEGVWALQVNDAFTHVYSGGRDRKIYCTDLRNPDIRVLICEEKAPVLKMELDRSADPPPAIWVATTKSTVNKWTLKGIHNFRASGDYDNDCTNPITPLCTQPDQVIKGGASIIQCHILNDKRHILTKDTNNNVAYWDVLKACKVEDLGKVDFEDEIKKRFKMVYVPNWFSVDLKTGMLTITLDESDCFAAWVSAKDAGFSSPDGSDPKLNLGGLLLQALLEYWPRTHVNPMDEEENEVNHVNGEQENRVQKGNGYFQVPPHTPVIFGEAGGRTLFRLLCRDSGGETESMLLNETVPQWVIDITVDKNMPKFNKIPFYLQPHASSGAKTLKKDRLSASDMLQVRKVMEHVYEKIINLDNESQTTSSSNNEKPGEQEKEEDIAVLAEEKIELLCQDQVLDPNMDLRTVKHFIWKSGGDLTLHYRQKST

Row | Compound | IC50 (Table 5, read-out: IC50 (μm)) | IC50 [1]
1 | Cc1nc(-c2cccnc2C(C)C)c2n1CCN(c1ccc(-c3nc(C(F)(F)F)cn3C)nc1)C2 [Compound 75, 5-{3-methyl-1-[2-(propan-2-yl)pyridin-3-yl]-5H,6H,7H,8H-imidazo[1,5-a]pyrazin-7-yl}-2-[1-methyl-4-(trifluoromethyl)-1H-imidazol-2-yl]pyridine] | ≤ 1 µM | –
2 | COc1ccc(N2CCn3c(C)nc(-c4cccnc4C(C)C)c3C2)cc1 [Compound 17, 3-[7-(4-methoxyphenyl)-3-methyl-5H,6H,7H,8H-imidazo[1,5-a]pyrazin-1-yl]-2-(propan-2-yl)pyridine] | > 25 µM | –
3 | Cc1nc(-c2cccnc2C(C)C)c2n1CCN(c1ccc(C3COC(=O)N3)cc1)C2 (centres unmarked) [Compound 37, 4-(4-{3-methyl-1-[2-(propan-2-yl)pyridin-3-yl]-5H,6H,7H,8H-imidazo[1,5-a]pyrazin-7-yl}phenyl)-1,3-oxazolidin-2-one] | > 25 µM | –
4 | CC(C)c1ncccc1-c1nc(C2CC2)n2c1CN(c1ccc(-c3nc(C(F)(F)F)cn3C)cc1)CC2 [Compound 24, 3-(3-cyclopropyl-7-{4-[1-methyl-4-(trifluoromethyl)-1H-imidazol-2-yl]phenyl}-5H,6H,7H,8H-imidazo[1,5-a]pyrazin-1-yl)-2-(propan-2-yl)pyridine] | ≤ 1 µM | –
5 | Cc1nc(-c2cccnc2C(C)C)c2n1CCN(c1ccc(-c3nc(Cl)cn3C)cc1)C2 [Compound 68, 3-{7-[4-(4-chloro-1-methyl-1H-imidazol-2-yl)phenyl]-3-methyl-5H,6H,7H,8H-imidazo[1,5-a]pyrazin-1-yl}-2-(propan-2-yl)pyridine] | ≤ 1 µM | –
6 | Cc1nc(-c2cccnc2C(C)C)c2n1CCN(c1ccc(-n3cnnc3)cc1)C2 [Compound 42, 3-{3-methyl-7-[4-(4H-1,2,4-triazol-4-yl)phenyl]-5H,6H,7H,8H-imidazo[1,5-a]pyrazin-1-yl}-2-(propan-2-yl)pyridine] | > 25 µM | –
7 | Cc1nc(-c2cccnc2C(C)C)c2n1CCN(c1ccc(N3CCCCC3=O)cc1)C2 [Compound 38, 1-(4-{3-methyl-1-[2-(propan-2-yl)pyridin-3-yl]-5H,6H,7H,8H-imidazo[1,5-a]pyrazin-7-yl}phenyl)piperidin-2-one] | > 25 µM | –
8 | Cc1nc(-c2cccnc2C(C)C)c2n1CCN(c1ccc(N3CCCC3=O)cc1)C2 [Compound 43, 1-(4-{3-methyl-1-[2-(propan-2-yl)pyridin-3-yl]-5H,6H,7H,8H-imidazo[1,5-a]pyrazin-7-yl}phenyl)pyrrolidin-2-one] | 1 to 10 µM | –
9 | Cc1nc(-c2cccnc2C(C)C)c2n1CCN(c1ccc(C(=O)NCc3ccc(-n4ccc(C(F)(F)F)n4)cc3)cc1)C2 [Compound 53, 4-{3-methyl-1-[2-(propan-2-yl)pyridin-3-yl]-5H,6H,7H,8H-imidazo[1,5-a]pyrazin-7-yl}-N-({4-[3-(trifluoromethyl)-1H-pyrazol-1-yl]phenyl}methyl)benzamide] | 1 to 10 µM | –
10 | Cc1nc(-c2cccnc2C(C)C)c2n1CCN(c1ccc(N3CCOCC3)cc1)C2 [Compound 30, 4-(4-{3-methyl-1-[2-(propan-2-yl)pyridin-3-yl]-5H,6H,7H,8H-imidazo[1,5-a]pyrazin-7-yl}phenyl)morpholine] | > 25 µM | –
11 | Cc1nc(-c2cccnc2C(C)C)c2n1CC(=O)N(c1ccc(-c3nc(C(F)(F)F)cn3C)cc1)C2 [Compound C-3, 1-(2-isopropylpyridin-3-yl)-3-methyl-7-(4-(1-methyl-4-(trifluoromethyl)-1H-imidazol-2-yl)phenyl)-7,8-dihydroimidazo[1,5-a]pyrazin-6(5H)-one] | – | > 25 µM
12 | Cc1nc(-c2cccnc2C(C)C)c2n1CCN(c1cccc3[nH]ccc13)C2 [Compound 12, 4-{3-methyl-1-[2-(propan-2-yl)pyridin-3-yl]-5H,6H,7H,8H-imidazo[1,5-a]pyrazin-7-yl}-1H-indole] | > 25 µM | –
13 | Cc1nc(-c2cccnc2C(C)C)c2n1CCN(c1ccc(-n3cccn3)cc1)C2 [Compound 9, 3-{3-methyl-7-[4-(1H-pyrazol-1-yl)phenyl]-5H,6H,7H,8H-imidazo[1,5-a]pyrazin-1-yl}-2-(propan-2-yl)pyridine] | 1 to 10 µM | –
14 | Cc1nc(-c2cccnc2C(C)C)c2n1CCN(c1ccc(OCCN3CCOCC3)cc1)C2 [Compound 23, 4-[2-(4-{3-methyl-1-[2-(propan-2-yl)pyridin-3-yl]-5H,6H,7H,8H-imidazo[1,5-a]pyrazin-7-yl}phenoxy)ethyl]morpholine] | 10 to 25 µM | –
15 | Cc1nc(-c2cccnc2OC(F)F)c2n1CCN(c1ccc(-n3ccc(C(F)(F)F)n3)cc1)C2 [Compound 78, 2-(difluoromethoxy)-3-(3-methyl-7-{4-[3-(trifluoromethyl)-1H-pyrazol-1-yl]phenyl}-5H,6H,7H,8H-imidazo[1,5-a]pyrazin-1-yl)pyridine] | ≤ 1 µM | –
16 | Cc1nc(-c2cccnc2C(C)C)c2n1CCN(c1ccc(-c3nc(C(F)(F)F)cn3C3CC3)cc1)C2 [Compound 76, 3-(7-{4-[1-cyclopropyl-4-(trifluoromethyl)-1H-imidazol-2-yl]phenyl}-3-methyl-5H,6H,7H,8H-imidazo[1,5-a]pyrazin-1-yl)-2-(propan-2-yl)pyridine] | ≤ 1 µM | –
17 | Cc1nc(-c2cccnc2C(C)C)c2n1CCN(c1ccc(-c3nc(C4CC4)cn3C)cc1)C2 [Compound 80, 3-{7-[4-(4-cyclopropyl-1-methyl-1H-imidazol-2-yl)phenyl]-3-methyl-5H,6H,7H,8H-imidazo[1,5-a]pyrazin-1-yl}-2-(propan-2-yl)pyridine] | ≤ 1 µM | –
18 | Cc1nc(-c2cccnc2C(C)C)c2n1CCN(c1ccc(-c3nc(C(F)(F)F)cn3C3COC3)cc1)C2 [Compound 25, 3-(3-methyl-7-{4-[1-(oxetan-3-yl)-4-(trifluoromethyl)-1H-imidazol-2-yl]phenyl}-5H,6H,7H,8H-imidazo[1,5-a]pyrazin-1-yl)-2-(propan-2-yl)pyridine] | ≤ 1 µM | –
19 | Cc1nc(-c2cccnc2OC(F)F)c2n1CCN(c1ccc(-c3nc(C(F)(F)F)cn3C)cc1)C2C (single isomer, unassigned) [Compound 52-2, 2-(difluoromethoxy)-3-[-3,8-dimethyl-7-{4-[1-methyl-4-(trifluoromethyl)-1H-imidazol-2-yl]phenyl}-5H,6H,7H,8H-imidazo[1,5-a]pyrazin-1-yl]pyridine] | 1 to 10 µM | –
20 | Cc1nc(-c2cccnc2OC(C)C)c2n1CCN(c1ccc(-c3nc(C(F)(F)F)cn3C)cc1)C2 [Compound 20, 3-(3-methyl-7-{4-[1-methyl-4-(trifluoromethyl)-1H-imidazol-2-yl]phenyl}-5H,6H,7H,8H-imidazo[1,5-a]pyrazin-1-yl)-2-(propan-2-yloxy)pyridine] | ≤ 1 µM | –
21 | Cc1nc(-c2cccnc2C(C)C)c2n1CCN(c1ccc(C#N)cc1)C2 [Compound 6, 4-{3-methyl-1-[2-(propan-2-yl)pyridin-3-yl]-5H,6H,7H,8H-imidazo[1,5-a]pyrazin-7-yl}benzonitrile] | > 25 µM | –
22 | Cc1nc(-c2cccnc2C(C)C)c2n1CCN(c1ccc(N(C)C)cc1)C2 [Compound 18, N,N-dimethyl-4-{3-methyl-1-[2-(propan-2-yl)pyridin-3-yl]-5H,6H,7H,8H-imidazo[1,5-a]pyrazin-7-yl}aniline] | > 25 µM | –
23 | Cc1nc(-c2cccnc2OC(F)F)c2n1CCN(c1ccc(-c3nc(C(F)(F)F)cn3C)cc1)C2 [Compound 15, 2-(difluoromethoxy)-3-(3-methyl-7-{4-[1-methyl-4-(trifluoromethyl)-1H-imidazol-2-yl]phenyl}-5H,6H,7H,8H-imidazo[1,5-a]pyrazin-1-yl)pyridine] | ≤ 1 µM | –
24 | Cc1nc(-c2cccnc2C(C)C)c2n1C(C)CN(c1ccc(-c3nc(C(F)(F)F)cn3C)cc1)C2 (single isomer, unassigned) [Compound 72-1, 3-[-3,5-dimethyl-7-{4-[1-methyl-4-(trifluoromethyl)-1H-imidazol-2-yl]phenyl}-5H,6H,7H,8H-imidazo[1,5-a]pyrazin-1-yl]-2-(propan-2-yl)pyridine] | ≤ 1 µM | –
25 | Cc1nc(-c2ccccc2C(C)C)n2cc(N3CCC(c4nc(C(F)(F)F)cn4C)CC3)ccc12 [Compound C-4, 3-(2-isopropylphenyl)-1-methyl-6-(4-(1-methyl-4-(trifluoromethyl)-1H-imidazol-2-yl)piperidin-1-yl)imidazo[1,5-a]pyridine] | – | > 25 µM
26 | Cc1nc(-c2cccnc2C(C)C)c2n1CCN(c1ccc(C(=O)N(C)CC(F)(F)F)cc1)C2 [Compound 58, N-methyl-4-{3-methyl-1-[2-(propan-2-yl)pyridin-3-yl]-5H,6H,7H,8H-imidazo[1,5-a]pyrazin-7-yl}-N-(2,2,2-trifluoroethyl)benzamide] | 1 to 10 µM | –
